# According to patent publication US6117840A, “CS-1 peptidomimetics, compositions and methods of using the same” (Cytel Corporation, priority 1997, dated 2000):
# Where two headings read alike, the source gives them in different places. Square brackets hold non-standard residues; d marks the D form. Peptide text beside a SMILES is read from it. * marks the point of attachment. PhAc = O=C(Cc1ccccc1)*
# Legend:
# VLA-4 = biological target: T1, VLA-4 (Homo sapiens, UniProt P05556+P13612); type: cell-based; conditions: for RELATIVE POTENCY (inhibition of VLA-4 binding CS-1): relative to standard peptide SEQ ID NO:3 (=1), normalized IC50, about one-tenth or less of SEQ ID NO:3 assigned zero
# T1 construct: host or cells: Jurkat (human T lymphoblastic line)
# Procedure: Binding inhibition is measured here as a concentration of peptide that inhibits one-half the binding between a standard number of Jurkat cells and a standard amount of CS-1 peptide bound to the surface of a microtiter plate well. Those concentrations are conveniently expressed as IC50 values, smaller numbers indicating a lower concentration required to inhibit 50 percent binding and therefore greater potency. Further specifics of this assay are provided hereinafter.
# Jurkat cells (ATCC TIB 152), a human T lymphoblastic line, labeled with ^51 chromium were used to assay in vitro binding inhibition provided by various peptides discussed herein.
# The plates were prepared as follows: The 25-mer CS1 peptide (SEQ ID NO:1) dissolved at 0.5-1 μg/ml in a buffer of 0.1M NaHCO3 at pH 9.5 tha also contained 10 μg/ml of bovine serum albumin (BSA) or a conjugate o the CS1 peptide linked to ovalbumin (CS1-OVA) dissolved at 1-2.5 μg/ml in the same buffer was used as the substrate. Each well of the microtiter plates was coated with 50 μl of substrate or buffer alone for controls The wells were permitted to dry out completely and were then rinsed twice with PBS at pH 7.4. Nonspecific binding sites of each well were then blocked using 200 μl per well of RPMI/1 percent BSA for two hours at room temperature. Both solid phaseaffixed substrates provided similar results.
# Jurkat cells (3-5×10^6 cells) were placed into a 15 ml Falcon.TM roundbottom tube with a cap. The tube was centrifuged, and the extra medium was then removed.
# Two hundred microliters of a ^51 Cr labeling solution were added to th centrifuged cells and maintained in contact with the cells for 90-120 minutes in a warm room. This procedure typically provides about 50,000-100,000 cpm/well with about 80-100 percent cell viability. Longer contact times provide a greater amount of labeling but lower cell viability.
# The labeled cells are washed with (i) complete medium, (ii) 1 mM EDTA/PBS and then (iii) RPMI/1 percent BSA free of serum components. The cells are centrifuged after each washing. The cells are finally resuspended in serumfree RPMI/1 percent BSA at a concentration of 1×10^6 viabl cells/ml, which provides a concentration that is diluted by onehalf in th assay.
# Inhibitor peptides are prepared as stock solutions at 20 mg/ml in DMSO in 1.5 ml cryogenic screwcap vials, and were stored at -70° C. Using Flow™ roundbottom or Vbottom microtiter plates, the inhibitor peptides were prepared at twice the assay concentration in RPMI/1 percent BSA at 6 μl/well.
# Four initial dilutions were typically used.
# The ^51 Crlabeled cells (1×10^6 cells at 60 μl/well) were then admixed with the diluted peptide solutions. The admixtures were maintained at room temperature (about 22° C.) for 30 minutes.
# One hundred microliters of each inhibitor peptide/cell admixture were transferred to the substratecoated wells. This was done in triplicate for each dilution. The resulting plates were incubated for 30 minutes at 37° C. and then washed gently three times with RPMI/1 percent BSA at 200 μl/well. Binding was observed microscopically, particularly after the second wash.
# The bound cells were then lysed by the addition of a 0.5 percent solution of sodium dodecylsulfate in water at 100 μl/well. The resulting solutions were then processed for counting and calculation of IC50 values following usual procedures. Appropriate positive and negative controls were used with each plate so that the results of separate assays could be normalized and compared.
# BALB/c mice = experiment: Adoptive transfer delayed type hypersensitivity in mice (oxazolone); type: in vivo, mouse; conditions: for swelling at challenge site (in words): 6 mg/kg/day s.c. pump for 24 hours
# Procedure: An adoptive transfer delayedtype hypersensitivity murine model has been developed using splenic T cells primed to oxazolone. This model is described in Elices et al., Clin. Exp. Rheum., 11(Suppl. 8):577-580 (1993), whose procedures were followed here.
# Thus, BALB/c mice were shaved on the belly and painted (50 μl on the belly and 5 μl on each paw) with three percent oxazolone in acetone/olive oil (4:1) at days zero and 1. At day 5, the mice were sacrificed, their spleens removed, and splenic T cells were obtained via nylon wool columns.
# Normal saline or saline containing 25×10^6 /animal of the oxazoloneimmune T cells were separately injected into naive mice. The mic were then challenged by painting 10 μl of 2 percent oxazolone onto one ear each. All procedures were carried out under sterile conditions and in endotoxingfree buffers.
# Prior to challenge or saline injection, the mice were implanted with pumps that subcutaneously administered normal saline, normal saline containing the peptide N--phenylacetyl--Leu--Asp--Phe--D--Pro--NH2 or normal saline containing a peptide with a scrambled sequence continually at 6 mg/kg/day for a 24-hour time period. The swelling diameter at the site of challenge or saline injection was measured with a microcaliper 24 hours thereafter.
# An expanded study was carried out as described above except that a scrambled peptide control was not used using further inhibitor peptides o Table 1 with larger groups of mice. Statistical analyses were carried out versus injection of vehicle alone. Those results are shown below in Table 2.
# asthmatic sheep = experiment: Treatment of asthmatic sheep (Ascaris suum antigen); type: in vivo; conditions: for PC400, carbacol dosage to increase SRL 4-fold, 24 hours after challenge: pre-challenge values about 20-23 BU
# Procedure: Six asthmatic sheep were treated in a double blind cross-over study by Dr. William M. Abraham of the Department of Research, Mount Sinai Medical Center, 4300 Alton Road, Miami Beach, Fla. 33140. […] This study was carried out generally as described in Abraham et al., J. Clin. Invest., 93:776-787 (1994).
# The inhibitor peptide used here was N--phenylacetyl--Leu--Asp--Phe--D--Pro--NH2, with a control peptide that comprised the previously described peptide having the same residues in a scrambled sequence. The vehicle for the nebulized peptides was phosphate-buffered saline. The peptides were administered at a dose of 1 mg/kg each, twice a day for three days prior to challenge, as well as 0.5 hours prior to and four hours post challenge on day 4. Because this was a crossover study, each animal received one or the other treatment, followed by a rest and then the other treatment. Each animal therefore served as its own control.
# T1 sequence (P13612 34-1032): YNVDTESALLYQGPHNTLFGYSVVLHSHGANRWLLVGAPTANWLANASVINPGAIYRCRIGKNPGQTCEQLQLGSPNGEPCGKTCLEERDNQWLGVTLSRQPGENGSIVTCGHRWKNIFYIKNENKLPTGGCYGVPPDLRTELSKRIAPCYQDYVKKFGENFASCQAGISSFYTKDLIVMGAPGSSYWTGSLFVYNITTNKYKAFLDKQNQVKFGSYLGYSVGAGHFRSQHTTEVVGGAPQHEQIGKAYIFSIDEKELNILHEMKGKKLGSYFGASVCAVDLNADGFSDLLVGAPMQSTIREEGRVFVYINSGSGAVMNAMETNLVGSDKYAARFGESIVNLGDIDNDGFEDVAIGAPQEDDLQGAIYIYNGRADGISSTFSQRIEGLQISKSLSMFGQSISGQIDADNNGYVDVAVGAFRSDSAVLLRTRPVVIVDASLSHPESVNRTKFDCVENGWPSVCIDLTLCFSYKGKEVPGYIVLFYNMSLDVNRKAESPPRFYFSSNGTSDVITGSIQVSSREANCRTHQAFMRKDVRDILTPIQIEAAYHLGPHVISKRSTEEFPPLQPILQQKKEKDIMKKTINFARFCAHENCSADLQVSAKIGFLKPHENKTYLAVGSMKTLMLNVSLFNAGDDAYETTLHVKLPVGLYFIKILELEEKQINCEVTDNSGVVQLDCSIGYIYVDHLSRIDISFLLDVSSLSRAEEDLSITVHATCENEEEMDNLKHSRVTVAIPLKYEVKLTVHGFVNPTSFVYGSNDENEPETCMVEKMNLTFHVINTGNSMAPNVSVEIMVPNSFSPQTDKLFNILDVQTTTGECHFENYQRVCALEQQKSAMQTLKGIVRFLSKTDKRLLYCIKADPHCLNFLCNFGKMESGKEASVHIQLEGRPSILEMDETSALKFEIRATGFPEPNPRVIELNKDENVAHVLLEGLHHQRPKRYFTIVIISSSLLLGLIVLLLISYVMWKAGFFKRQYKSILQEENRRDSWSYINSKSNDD
# T1 sequence (P05556 21-798): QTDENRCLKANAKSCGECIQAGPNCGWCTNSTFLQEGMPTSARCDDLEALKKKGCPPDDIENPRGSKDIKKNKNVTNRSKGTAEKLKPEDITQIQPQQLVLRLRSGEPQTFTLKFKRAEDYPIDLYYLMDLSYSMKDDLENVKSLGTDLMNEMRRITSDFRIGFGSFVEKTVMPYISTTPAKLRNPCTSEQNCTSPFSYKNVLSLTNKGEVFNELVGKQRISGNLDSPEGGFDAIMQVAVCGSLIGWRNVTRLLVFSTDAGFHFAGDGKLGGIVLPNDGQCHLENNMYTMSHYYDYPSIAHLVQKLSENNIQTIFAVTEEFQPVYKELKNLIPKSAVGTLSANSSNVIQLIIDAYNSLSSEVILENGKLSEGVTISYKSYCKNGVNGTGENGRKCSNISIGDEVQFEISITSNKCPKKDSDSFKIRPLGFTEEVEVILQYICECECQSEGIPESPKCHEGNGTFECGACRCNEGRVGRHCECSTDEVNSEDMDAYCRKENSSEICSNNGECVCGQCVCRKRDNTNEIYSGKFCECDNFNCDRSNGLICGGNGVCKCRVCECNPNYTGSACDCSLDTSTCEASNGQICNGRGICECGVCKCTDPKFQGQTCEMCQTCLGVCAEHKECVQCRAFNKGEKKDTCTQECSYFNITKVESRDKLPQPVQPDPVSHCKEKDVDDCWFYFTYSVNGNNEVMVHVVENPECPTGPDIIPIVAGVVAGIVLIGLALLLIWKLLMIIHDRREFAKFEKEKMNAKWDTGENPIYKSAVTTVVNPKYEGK
SMILES,"VLA-4 binding inhibition, times better than the standard 10-mer peptide of SEQ ID NO:3 (VLA-4)",RELATIVE POTENCY (inhibition of VLA-4 binding CS-1) (VLA-4),swelling at challenge site (in words) (BALB/c mice),"Percent Inhibition (BALB/c mice; expanded study, 6 mg/kg/day, versus vehicle) [%]","change in specific lung resistance (SRL) after challenge (FIG. 7) (asthmatic sheep; 1 mg/kg nebulized twice a day, versus control peptide)","PC400, carbacol dosage to increase SRL 4-fold, 24 hours after challenge (asthmatic sheep)",binding inhibition (in words) (VLA-4; compared to standard 10-mer / B12),RELATIVE POTENCY (inhibition of VLA-4 binding CS-1) (VLA-4; listed as N--phenylacetyl--Asp--Leu--Phe--D--Pro--NH2)
"CC(C)C[C@H](NC(=O)Cc1ccccc1)C(=O)N[C@@H](CC(=O)O)C(=O)N[C@@H](Cc1ccccc1)C(=O)N1CCC[C@@H]1C(N)=O [X L D F p phenylacetyl amide, N--phenylacetyl--Leu--Asp--Phe--D--Pro--NH2] (PhAc-LDF[dP]-NH2)",about 312 times,313,reduced thi type of CS1/VLA-4-mediated immunoinflammation,36,less of a change from baseline specific lung resistance,about 27 BU,–,–
"CC(C)C[C@H](NC(=O)[C@H](CC(=O)O)NC(=O)Cc1ccccc1)C(=O)N[C@@H](Cc1ccccc1)C(=O)N1CCC[C@@H]1C(N)=O [X L D F p phenylacetyl amide scrambled, N--phenylacetyl--Asp--Leu--Phe--D--Pro--NH2, reference compound] (PhAc-DLF[dP]-NH2)",–,0,no reduction of inflammation,–,–,about 12 BU,no inhibition of VLA-4,< 1
